The subject of test [1] is H460 (NRF2 pathway mutant cell line with high AKR1C3 expression). Briefly: In vitro cell proliferation assay (CellTiter-Glo), H460. The class given is cell-based. The following applies: Homo sapiens, NCI-H460, 72 h, read-out: H460 Qualified absolute AC50. From the text:
(§1) Cellular Proliferation Assay to Assess Compounds Activity in H460 (NRF2 Pathway Mutant Cell Line with High AKR1C3 Expression) and Hara (NRF2 Pathway Wild Type Cell Line with Low AKR1C3 Expression).
(§2) The cell lines A549 and H460 are NRF2 pathway mutant and specifically contain genetic alterations in KEAP1 (A549: G333C, H460: D236H) (Singh A. et al., 2006 PLoS Medicine 3(10) e420). In these cell lines the NRF2 pathway is constitutively active and these cells express high levels of NRF2 protein and NRF2 pathway target gene AKR1C3. […] They have low AKR1C3 expression.
(§3) In Vitro Cell Proliferation Assay
(§4) Day 1, for H460 800 cells/well or 40 μL of 2×10^4 cells/mL and for Hara 2000 cells/well or 40 μL of 5×10^4 cells/mL medium (RPMI-1640 supplemented with 10% fetal bovine serum and 1% penicillin/streptomycin) were seeded into 384-well tissue culture plates. Day 2, compounds were serially diluted 1:5 to generate 8 point dose response curves and added to cells for a final top concentration of 10 μM. DMSO (1%) control and MG132 (30 μM) controls are added in columns 23 and 24 respectively on each plate for positive and negative control. After incubation for 3 days at 37° C./5% CO2, 30 μl of CellTiter-Glo reagent (Promega) was added and the plates were incubated for 10 min on plate shaker. The amount of luminescence was determined using a Perkin Elmer Envision plate reader. CellTiter-Glo luminescence values of cells treated with DMSO and MG132 controls were used to normalize the data and calculate percentage activity and AC50s of compounds using the Helios Software suite.

Test [2] concerns Hara (NRF2 pathway wild type cell line with low AKR1C3 expression). Briefly: In vitro cell proliferation assay (CellTiter-Glo), Hara. In kind it is cell-based. The following applies: 72 h, read-out: HARA Qualified absolute AC50.
Text: as §1, §2, §3, §4
(Cellular ATP, detected with luciferase, serves as a proxy for viable cell number.)

Where [3] appears, read: H460 cells, 3 days, CellTiter-Glo, top concentration 10 μM.
Where [4] appears, read: Hara cells, 3 days, CellTiter-Glo, top concentration 10 μM.

Where two headings read alike, the source gives them in different places.

Take `CN1c2ccc(F)cc2C(=O)CC12CCN(C(=O)NCc1ccc(F)c(C(N)=O)c1)CC2` [Example 41, N-(3-carbamoyl-4-fluorobenzyl)-6′-fluoro-1′-methyl-4′-oxo-3′,4′-dihydro-1′H-spiro[piperidine-4,2′-quinoline]-1-carboxamide]: the AC50 (as a rule, the midpoint of the concentration-response curve, whichever way the signal moves) in test [1] (setting [3]) was 93 nM; in test [2] (setting [4]) it was over 10000 nM.

Regarding `Cc1noc(CNC(=O)N2CCC3(CC2)CC(=O)c2cc(F)ccc2N3)n1` [Example 134, 6′-fluoro-N-((3-methyl-1,2,4-oxadiazol-5-yl)methyl)-4′-oxo-3′,4′-dihydro-1′H-spiro[piperidine-4,2′-quinoline]-1-carboxamide], the results for the AC50 in test [1] (setting [3]) and in test [2] (setting [4]) were 1780 nM and 94 nM, respectively.

In the case of `O=C1CC2(CCN(C(=O)NCc3cc(OCCO)c(F)cc3F)CC2)Nc2ccc(F)cc21` [Example 71, N-(2,4-difluoro-5-(2-hydroxyethoxy)benzyl)-6′-fluoro-4′-oxo-3′,4′-dihydro-1′H-spiro[piperidine-4,2′-quinoline]-1-carboxamide], the AC50 is 265 nM in test [1] (setting [3]) and over 10000 nM in test [2] (setting [4]).

In the case of `Nc1cc(F)c(CNC(=O)N2CCC3(CC2)CC(=O)c2cc(F)ccc2N3)cc1F` [Example 49, N-(4-amino-2,5-difluorobenzyl)-6′-fluoro-4′-oxo-3′,4′-dihydro-1′H-spiro[piperidine-4,2′-quinoline]-1-carboxamide], the AC50 in test [1] (setting [3]) is 113 nM; in test [2] (setting [4]) it was over 10000 nM.

Turning to `Cc1cc(CNC(=O)N2CCC3(CC2)CC(=O)c2cc(F)ccc2N3)ccc1N` [Example 119, N-(4-amino-3-methylbenzyl)-6′-fluoro-4′-oxo-3′,4′-dihydro-1′H-spiro[piperidine-4,2′-quinoline]-1-carboxamide], the values for the AC50 in test [1] (setting [3]) and in test [2] (setting [4]) were 1020 nM and over 10000 nM, respectively.

Take `[2H]C([2H])(NC(=O)N1CCC2(CC1)CC(=O)c1cc(F)ccc1N2)c1ccc(F)cc1` [Example 12, 6′-fluoro-N-((4-fluorophenyl)methyl-d2)-4′-oxo-3′,4′-dihydro-1′H-spiro[piperidine-4,2′-quinoline]-1-carboxamide]: the AC50 in test [1] (setting [3]) is 24 nM; in test [2] (setting [4]) it was over 10000 nM.

Turning to `O=C1CC2(CCN(C(=O)NCc3ccc4cc[nH]c4c3)CC2)Nc2ccc(F)cc21` [Example 120, N-((1H-indol-6-yl)methyl)-6′-fluoro-4′-oxo-3′,4′-dihydro-1′H-spiro[piperidine-4,2′-quinoline]-1-carboxamide], the AC50 in test [1] (setting [3]) is 1050 nM; in test [2] (setting [4]) it was over 10000 nM.

For `COCCNc1cc(CNC(=O)N2CCC3(CC2)CC(=O)c2cc(F)ccc2N3)ccc1F` [Example 99, 6′-fluoro-N-(4-fluoro-3-((2-methoxyethyl)amino)benzyl)-4′-oxo-3′,4′-dihydro-1′H-spiro[piperidine-4,2′-quinoline]-1-carboxamide], the half-maximal activity concentration (AC50) in test [1] (setting [3]) was 507 nM; in test [2] (setting [4]) it was over 10000 nM.

Consider `COCCN1c2ccc(F)cc2C(=O)CC12CCN(C(=O)NCc1ccc(F)cc1)CC2` [Example 14, 6′-fluoro-N-(4-fluorobenzyl)-1′-(2-methoxyethyl)-4′-oxo-3′,4′-dihydro-1′H-spiro[piperidine-4,2′-quinoline]-1-carboxamide], for which the AC50 amounted to 29 nM in test [1] (setting [3]) and 795 nM in test [2] (setting [4]).

Turning to `O=C1CC2(CCN(C(=O)NCc3cocn3)CC2)Nc2ccc(F)cc21` [Example 138, 6′-fluoro-N-(oxazol-4-ylmethyl)-4′-oxo-3′,4′-dihydro-1′H-spiro[piperidine4,2′-quinoline]-1-carboxamide], the figures for the AC50 in test [1] (setting [3]) and in test [2] (setting [4]) were 2110 nM and over 10000 nM, respectively.

Take `Cc1cc(F)cc2c1NC1(CCN(C(=O)NCc3ccc(F)c(C(N)=O)c3)CC1)CC2=O` [Example 142, N-(3-carbamoyl-4-fluorobenzyl)-6′-fluoro-8′-methyl-4′-oxo-3′,4′-dihydro-1′H-spiro[piperidine4,2′-quinoline]-1-carboxamide]: the AC50 in test [1] (setting [3]) is 2450 nM; in test [2] (setting [4]), over 10000 nM.

For `CCNc1cc(F)ccc1CNC(=O)N1CCC2(CC1)CC(=O)c1cc(F)ccc1N2C` [Example 52, N-(2-(ethylamino)-4-fluorobenzyl)-6′-fluoro-1′-methyl-4′-oxo-3′,4′-dihydro-1′H-spiro[piperidine-4,2′-quinoline]-1-carboxamide], the AC50 in test [1] (setting [3]) was 139 nM; in test [2] (setting [4]), over 10000 nM.

For `CN1c2ccc(F)cc2C(=O)CC12CCN(C(=O)NCc1ccc(F)c(N)c1)CC2` [Example 27, N-(3-amino-4-fluorobenzyl)-6′-fluoro-1′-methyl-4′-oxo-3′,4′-dihydro-1′H-spiro[piperidine-4,2′-quinoline]-1-carboxamide], the figures for the AC50 in test [1] (setting [3]) and in test [2] (setting [4]) were 48 nM and over 10000 nM, respectively.

For `CC(O)c1cc(CNC(=O)N2CCC3(CC2)CC(=O)c2cc(F)ccc2N3)ccc1F` (stereo not drawn) [Example 135, 6′-fluoro-N-(4-fluoro-3-(1-hydroxyethyl)benzyl)-4′-oxo-3′,4′-dihydro-1′H-spiro[piperidine-4,2′-quinoline]-1-carboxamide], the figures for the AC50 in test [1] (setting [3]) and in test [2] (setting [4]) were 1860 nM and over 10000 nM, respectively.

For `C[C@@H](O)CNC(=O)c1cc(CNC(=O)N2CCC3(CC2)CC(=O)c2cc(F)ccc2N3C)ccc1F` [Example 94, (R)-6′-fluoro-N-(4-fluoro-3-((2-hydroxypropyl)carbamoyl)benzyl)-1′-methyl-4′-oxo-3′,4′-dihydro-1′H-spiro[piperidine-4,2′-quinoline]-1-carboxamide], the AC50 in test [1] (setting [3]) amounted to 471 nM; in test [2] (setting [4]) it was 9490 nM.

Turning to `C[C@H](O)CNC(=O)c1cc(CNC(=O)N2CCC3(CC2)CC(=O)c2cc(F)ccc2N3C)ccc1F` [Example 117, (S)-6′-fluoro-N-(4-fluoro-3-((2-hydroxypropyl)carbamoyl)benzyl)-1′-methyl-4′-oxo-3′,4′-dihydro-1′H-spiro[piperidine-4,2′-quinoline]-1-carboxamide], the AC50 is 956 nM in test [1] (setting [3]) and over 10000 nM in test [2] (setting [4]).

Turning to `O=C(NCc1ccc(F)cc1O)N1CCC2(CC1)C[C@H](O)c1cc(F)ccc1N2` (single isomer, unassigned) [Example 154b], the AC50 in test [1] (setting [3]) came out at 464 nM; in test [2] (setting [4]) it was 749 nM.

On to `NC(=O)c1cccc(CNC(=O)N2CCC3(CC2)CC(=O)c2cc(F)ccc2N3)c1` [Example 69, N-(3-carbamoylbenzyl)-6′-fluoro-4′-oxo-3′,4′-dihydro-1′H-spiro[piperidine-4,2′-quinoline]-1-carboxamide], for which the AC50 in test [1] (setting [3]) was 233 nM; in test [2] (setting [4]), over 10000 nM.

As to `O=C1CC2(CCN(C(=O)NCc3ccc(F)c(NCCO)c3)CC2)Nc2ccc(F)cc21` [Example 78, 6′-fluoro-N-(4-fluoro-3-((2-hydroxyethyl)amino)benzyl)-4′-oxo-3′,4′-dihydro-1′H-spiro[piperidine-4,2′-quinoline]-1-carboxamide], the AC50 in test [1] (setting [3]) is 321 nM; in test [2] (setting [4]) it was over 10000 nM.

Regarding `O=C1CC2(CCN(C(=O)NCc3ccc(F)c(OCCO)c3)CC2)Nc2ccc(F)cc21` [Example 70, 6′-fluoro-N-(4-fluoro-3-(2-hydroxyethoxy)benzyl)-4′-oxo-3′,4′-dihydro-1′H-spiro[piperidine-4,2′-quinoline]-1-carboxamide], the results for the AC50 in test [1] (setting [3]) and in test [2] (setting [4]) were 238 nM and 3550 nM, respectively.

Turning to `Nc1cc(CNC(=O)N2CCC3(CC2)CC(=O)c2cc(F)ccc2N3)ccc1F` [Example 95, N-(3-amino-4-fluorobenzyl)-6′-fluoro-4′-oxo-3′,4′-dihydro-1′H-spiro[piperidine-4,2′-quinoline]-1-carboxamide], the results for the AC50 in test [1] (setting [3]) and in test [2] (setting [4]) were 485 nM and over 10000 nM, respectively.

`CN1c2ccc(F)cc2C(=O)CC12CCN(C(=O)NCc1ccc(F)c(NCC(C)(C)C(=O)O)c1)CC2` [Example 140, 3-((2-fluoro-5-((6′-fluoro-1′-methyl-4′-oxo-3′,4′-dihydro-1′H-spiro[piperidine-4,2′-quinoline]-1-carboxamido)methyl)phenyl)amino)-2,2-dimethylpropanoic acid]: the results for the AC50 in test [1] and in test [2] were 2340 nM and over 10000 nM, respectively.

Regarding `NC(=O)c1c(F)ccc(CNC(=O)N2CCC3(CC2)CC(=O)c2cc(F)ccc2N3)c1F` [Example 109, N-(3-carbamoyl-2,4-difluorobenzyl)-6′-fluoro-4′-oxo-3′,4′-dihydro-1′H-spiro[piperidine-4,2′-quinoline]-1-carboxamide], the AC50 in test [1] (setting [3]) is 690 nM; in test [2] (setting [4]) it was over 10000 nM.

Consider `CCN1c2ccc(F)cc2C(=O)CC12CCN(C(=O)NCc1ccc(F)cc1)CC2` [Example 6, 1′-ethyl-6′-fluoro-N-(4-fluorobenzyl)-4′-oxo-3′,4′-dihydro-1′H-spiro[piperidine-4,2′-quinoline]-1-carboxamide], for which the AC50 in test [1] (setting [3]) is 9 nM; in test [2] (setting [4]) it was over 10000 nM.

(Values after patent US11970497B2, “Tricyclic AKR1C3 dependent KARS inhibitors” (Novartis AG, priority 2019, dated 2024).)
